Some test systems named below: MDA-MB-435; RXF 393 renal; NCI-H23 lung; SK-OV-3 ovarian; OVCAR-3 ovarian; MDA-N; TK-10 renal; SF-539 CNS; SK-MEL-2 melanoma; SW-620 colon; CAKI-1 renal; NCI/ADR-RES ovarian; MALME-3M melanoma; OVCAR-4 ovarian; RPMI-8226 leukemia; BT-549 breast.
Test in all cases: inhibition of tumour cell growth, NCI panel, 48 h

Each structure is given as a SMILES string.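 Results reflect a 48-hour exposure of cells in 96-well plates to compound at five concentrations. The concentration for full growth arrest is given as TGI.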 Bounds are passed on as bounds.

For the compound `CCOP(=O)(C=C=C(C)C)OCC`, the TGI in the test on MDA-MB-435, in the test on RXF 393 renal, with NCI-H23 lung, in the test on SK-OV-3 ovarian, in the test on OVCAR-3 ovarian and with MDA-N was > 100 µM throughout. The TGI with TK-10 renal, in the test on SF-539 CNS, with SK-MEL-2 melanoma, in the test on SW-620 colon, in the test with CAKI-1 renal and in the test with NCI/ADR-RES ovarian was > 100 µM each time. In addition, the TGI in the test on MALME-3M melanoma and in the test with OVCAR-4 ovarian was > 100 µM each time.

Consider `Cc1n[nH]c(=O)n1/N=C/c1c[nH]c2ccccc12`, for which the TGI in the test with MDA-MB-435 is > 100 µM; in the test on RXF 393 renal it was 82.3 µM; in the test with NCI-H23 lung it was > 100 µM; in the test on SK-OV-3 ovarian, > 100 µM; in the test with OVCAR-3 ovarian, > 100 µM; with RPMI-8226 leukemia, > 100 µM. The TGI with BT-549 breast, in the test on SF-539 CNS, in the test on SK-MEL-2 melanoma, in the test on SW-620 colon, in the test on CAKI-1 renal and with NCI/ADR-RES ovarian was > 100 µM each time. For the same compound, the TGI in the test on MALME-3M melanoma and with OVCAR-4 ovarian was > 100 µM each time.

As to `CN(C)c1nc(NN)c2c(-c3ccccc3)c(-c3ccccc3)oc2n1`, the TGI in the test on MDA-MB-435, in the test with RXF 393 renal, in the test on NCI-H23 lung, in the test with SK-OV-3 ovarian, in the test on RPMI-8226 leukemia and in the test with TK-10 renal was > 100 µM throughout. Also, the TGI in the test on SF-539 CNS, in the test with SW-620 colon, in the test with CAKI-1 renal, with NCI/ADR-RES ovarian and in the test on OVCAR-4 ovarian was > 100 µM in each case.

For `OC1CN2CCS[C@H]2C(O)C1O` (some centres not stated), the TGI in the test with MDA-MB-435, in the test on RXF 393 renal, in the test with NCI-H23 lung, with SK-OV-3 ovarian, with OVCAR-3 ovarian and in the test on RPMI-8226 leukemia was > 100 µM each time. Moreover, the TGI in the test on TK-10 renal, in the test on BT-549 breast, with SK-MEL-2 melanoma, with SW-620 colon, in the test with CAKI-1 renal and in the test on NCI/ADR-RES ovarian was > 100 µM throughout. Also, the TGI in the test on MALME-3M melanoma and in the test on OVCAR-4 ovarian was > 100 µM throughout.

As to `CCN(CC)CCCNc1nc2ccccc2c2[nH]c3ccc(OC)cc3c12`, the TGI is 2.99 µM in the test on MDA-MB-435; 2.96 µM in the test on RXF 393 renal; 2.93 µM in the test with NCI-H23 lung; > 10 µM with SK-OV-3 ovarian; > 10 µM in the test with OVCAR-3 ovarian; 2.99 µM in the test with MDA-N. Besides, the TGI in the test on RPMI-8226 leukemia was determined as 9.41 µM; in the test on TK-10 renal, 5.55 µM; with SF-539 CNS it was 3.67 µM; with SK-MEL-2 melanoma it was 3.16 µM; with SW-620 colon it was 2.37 µM; with CAKI-1 renal, 8.25 µM. Also, the values for the TGI in the test with NCI/ADR-RES ovarian, with MALME-3M melanoma and in the test on OVCAR-4 ovarian were 2.92 µM, 3.41 µM and 2.64 µM, respectively.

As for `N#CC(c1cc2c(cc1Br)OCO2)N1CCOCC1` (configuration not stated), the TGI with MDA-MB-435 was 18.4 µM; with RXF 393 renal, 51.6 µM; in the test on NCI-H23 lung, > 100 µM; in the test with SK-OV-3 ovarian, > 100 µM; with OVCAR-3 ovarian it was > 100 µM; in the test with MDA-N, > 100 µM. Moreover, the TGI in the test with RPMI-8226 leukemia is > 100 µM; with TK-10 renal it was > 100 µM; in the test on SF-539 CNS, 92.1 µM; in the test with SW-620 colon, > 100 µM; in the test on CAKI-1 renal, > 100 µM; in the test with NCI/ADR-RES ovarian, > 100 µM. Also, the TGI with MALME-3M melanoma and with OVCAR-4 ovarian was > 100 µM throughout.

Take `NC1=NNC2(C(N)=N1)c1ccccc1-c1ccccc12`: the TGI in the test with MDA-MB-435, in the test with RXF 393 renal, in the test with NCI-H23 lung, with SK-OV-3 ovarian, in the test with RPMI-8226 leukemia and in the test on TK-10 renal was > 10 µM in each case. In addition, the TGI with BT-549 breast, in the test with SF-539 CNS, with SW-620 colon, in the test on CAKI-1 renal, in the test on NCI/ADR-RES ovarian and with MALME-3M melanoma was > 10 µM throughout. Moreover, the TGI in the test with OVCAR-4 ovarian was > 10 µM.

As to `N/N=C1\CCCc2c1no[n+]2[O-]`, the TGI in the test with MDA-MB-435, in the test on RXF 393 renal, in the test on NCI-H23 lung, in the test with SK-OV-3 ovarian, in the test on OVCAR-3 ovarian and in the test with MDA-N was > 100 µM in each case. In addition, the TGI in the test on RPMI-8226 leukemia, in the test with TK-10 renal, in the test with SF-539 CNS, in the test on SK-MEL-2 melanoma, in the test with SW-620 colon and with CAKI-1 renal was > 100 µM in each case. Besides, the TGI in the test on NCI/ADR-RES ovarian, in the test with MALME-3M melanoma and in the test with OVCAR-4 ovarian was > 100 µM throughout.

For `COC(=O)CCn1cnc2c(SC)ncnc21`, the TGI with MDA-MB-435, in the test on RXF 393 renal, in the test on NCI-H23 lung, in the test with SK-OV-3 ovarian, with OVCAR-3 ovarian and in the test on MDA-N was > 100 µM in each case. The TGI with RPMI-8226 leukemia, in the test with TK-10 renal, in the test on SF-539 CNS, in the test with SW-620 colon, in the test on CAKI-1 renal and in the test with NCI/ADR-RES ovarian was > 100 µM throughout. For the same compound, the TGI in the test with MALME-3M melanoma and with OVCAR-4 ovarian was > 100 µM throughout.

`O=[N+]([O-])c1cc(Cl)cc2cc(Cl)cnc12`: the TGI in the test with MDA-MB-435, in the test with RXF 393 renal, in the test with NCI-H23 lung, in the test with OVCAR-3 ovarian, in the test with RPMI-8226 leukemia and in the test on TK-10 renal was > 100 µM throughout. Moreover, the TGI in the test on BT-549 breast, in the test on SF-539 CNS, in the test on SW-620 colon, in the test on CAKI-1 renal, in the test with NCI/ADR-RES ovarian and in the test with MALME-3M melanoma was > 100 µM throughout. Further, in the test with OVCAR-4 ovarian, the TGI is > 100 µM.
